Measured values published in patent publication US4986988A, “Isolation and structural elucidation of the cytostatic linear depsipeptides dolastatin 13 and dehydrodolastatin 13” (priority 1989, dated 1991).
Converted amounts (≈) assume the structure as drawn. Read-outs that look alike come from different tables or passages of the source.

System: P388 lymphocytic leukemia (PS System) cell line
Test: P388 lymphocytic leukemia in vitro cell line growth inhibition (PS bioassay)
Format: cell-based, murine
Protocol: Because of the dolastatin's potency, the sea hare seems to require only vanishingly small quantities (about 1 mg each from 100 kg), making isolation and structural elucidation of these peptides exceptionally challenging. Later another substance was isolated and determined to be a unique linear pentapeptide and was denominated "dolastatin 10".

## C/C=C1/NC(=O)C(NC(=O)C(NC(=O)C(CO)OC)C(C)C)C(C)OC(=O)C(C(C)C)NC(=O)C(Cc2ccccc2)N(C)C(=O)C(Cc2ccccc2)N2C(=O)C(CCC2O)NC1=O (centres unmarked) [dolastatin 13]
  ED50: 1.3 ng/mL (≈ 1.43 nM)
Listed as Dolastatin 13
  ED50: 13 ng/mL (≈ 14.3 nM)
